Test results taken from patent publication US8435548B2, “Peptide derivatives and cosmetic composition comprising the same” (Bio-FD&C Co., Ltd, priority 2009, dated 2013).
Primed or numbered codes have the meaning given here. Where no end group is shown, it is not given here. Galloyl′ = not defined here

Assays:
mushroom tyrosinase = test: Inhibition effect on tyrosinase activity; type: biochemical; settings: test compound 100 μM; L-tyrosine substrate; pH 6.8; 37° C., 20 min; absorbance 490 nm
Protocol: Inhibition effects of the prepared compounds were measured by the known method (see: Pomerantz S. H., J. Biochem., 24:161-168, 1966).
The test compounds were prepared to a final concentration of 100 μM and put into a 96-well plate, and 220 μl of 100 mM sodium phosphate buffer (pH 6.8) and 40 μl of 1.5 mM L-tyrosine solution were added thereto. The resulting mixture was reacted with the addition of 20 μl of mushroom tyrosinase (1,500 units/ml, Sigma) at 37° C. for 20 min. 0.2 ml of the reacted solution was transferred to a 96-well plate, and its absorbance was measured at 490 nm with a microplate reader to obtain the inhibition effect on tyrosinase.
The tyrosinase inhibition effect was calculated according to the following formula 1 by using the absorbance of pure water as a control, and expressed as a percentage.

[1] = Free radical scavenging activity test (DPPH method, anti-oxidative activity); type: physicochemical; settings: 30 min, absorbance 517 nm
Protocol: A representative antioxidant, vitamin C (Sigma) was used as a positive control, and the galloyl-tetrapeptide and digalloyl-tetrapeptide according to the present invention were mixed with 1,1-diphenyl-2-picrylhydrazyl (DPPH, Sigma) producing free radicals in ethanol to determine the reduced amounts of the produced free radicals. […] The resulting solution was vigorously vortexed for 10 sec, kept at a dark cold place for 30 min, and then its absorbance was measured at 517 nm by ELISA method. The anti-oxidative activity (free radical scavenging activity) was calculated according to the following formula 2 by using the absorbance of pure water as a control, and expressed as a percentage. [formula]

Compound: O=C(O)c1cc(O)c(O)c(O)c1 [Gallic acid]
- Inhibition (%) (mushroom tyrosinase): 10%
- Free radical scavenging activity (%) ([1]; 10 uM): 63.1%
- Free radical scavenging activity (%) ([1]; 50 uM): 70.4%
- Free radical scavenging activity (%) ([1]; 100 uM): 75.1%

Compound: O=C1O[C@H]([C@@H](O)CO)C(O)=C1O [Vitamin C]
- Free radical scavenging activity (%) ([1]; 10 uM): 55.2%
- Free radical scavenging activity (%) ([1]; 50 uM): 68.3%
- Free radical scavenging activity (%) ([1]; 100 uM): 72.5%

Compound: Digalloyl-Tetrapeptide(Lysyl-Glutamyl-Cysteinyl-Glycine) [Example 2]
- Inhibition (%) (mushroom tyrosinase): 52%
- Free radical scavenging activity (%) ([1]; 10 uM): 82.1%
- Free radical scavenging activity (%) ([1]; 50 uM): 82.0%
- Free radical scavenging activity (%) ([1]; 100 uM): 83.5%

Compound: Digalloyl-Tetrapeptide(Lysyl-Tyrosyl-Histidyl-Tyrosine) (KYHY; also: digalloyl: two galloyl groups, sites not given here) [Comparative Example 2, soy bean-derived peptide connected to gallic acid]
- Inhibition (%) (mushroom tyrosinase): 21%

Compound: Galloyl-Tetrapeptide(Lysyl-Glutamyl-Cysteinyl-Glycine) [Example 1]
- Inhibition (%) (mushroom tyrosinase): 40%
- Free radical scavenging activity (%) ([1]; 10 uM): 65.8%
- Free radical scavenging activity (%) ([1]; 50 uM): 78.2%
- Free radical scavenging activity (%) ([1]; 100 uM): 78.1%

Compound: Galloyl-Tripeptide(Glutamyl-Cysteinyl-Glycine) [Example 3]
- Inhibition (%) (mushroom tyrosinase): 34%

Compound: Galloyl-Tripeptide(Tyrosyl-Histidyl-Tyrosine) ({Galloyl′}-Tyr-His-Tyr) [Comparative Example 1, soy bean-derived peptide connected to gallic acid]
- Inhibition (%) (mushroom tyrosinase): 15%
